Measurements: patent publication US20260027083A1, “USE OF PPAR AGONIST FOR IMPROVEMENT OF ENERGY METABOLISM” (NOVMETAPHARMA CO., LTD., priority 2022, published 2026)

Experiments:
high-fat diet mice [1] = assay: High-fat diet mice: micro-CT adipose tissue volume; assay type: in vivo, C57BL/6J mice; details: 5 mg/kg/day oral, 60% HFD, vs control group, FIGS. 7 and 8
Method: (§1) The care and use of experimental animals were carried out with the approval of the Institutional Animal Care and Use Committee of Pohang University of Science and Technology. C57BL/6J mice were purchased from Japan SLC, Inc. 50 four-week-old male C57/BL/6J mice were acclimated for 2 weeks. The mice were randomly divided and orally administered with vehicle or 5 mg/kg/day of D6 or WY14643 for 13 weeks (oral gavage), and obesity was induced by a 60% high-fat diet (#D12492, Research diets, NJ, USA). Body weights and food intakes were measured weekly from 6 weeks of age, and after 16 weeks of age, adipose tissue and muscle volumes were measured using a Trimodality imaging system.
(§2) To confirm a metabolic disease inhibitory effect of the compound represented by Chemical Formula 1 through animal experiments, mice were acclimated for 2 weeks, and then obesity was induced by feeding a 60% high fat diet (HFD) and orally administered with vehicle or 5 mg/kg/day of the compound represented by Chemical Formula 1 (D6) or WY14643 for 13 weeks. Experiments such as IP-GTT, IP-ITT, and micro-CT were performed at the week 10 of drug administration (FIG. 5).

high-fat diet mice [2] = assay: Intraperitoneal insulin tolerance test (IP-ITT) in high-fat diet mice; assay type: in vivo, C57BL/6J mice; details: 5 mg/kg/day oral, 60% HFD, insulin 0.75 U/kg i.p. after 3 h fasting, FIG. 11
Method: as §1
An insulin tolerance test (ITT) was performed on mice after 17 weeks of age after fasting for 3 hours and intraperitoneal insulin administration at 0.75 U/kg body weight. The blood glucose levels were measured at 0, 15, 30, 45, 60 and 90 minutes after tail vein injection.
as §2, with “Experiments such as IP-GTT, IP-ITT, and micro-CT were performed at the week 10 of drug administration (FIG. 5).” left out

PPARγ = biological target: T1, PPARγ (Homo sapiens, UniProt P37231); assay: Gal4 trans-activated luciferase reporter assay, PPARγ-LBD, HEK293; assay type: cell-based; details: HEK293, drug treatment 24 hours, FIG. 1
T1 construct: three types of pcDNA5-GAL4 and pGALRE-luc containing PPARα-LBD, PPARβ/δ-LBD, or PPARγ-LBD; GAL4 (fusion partner from vector pcDNA5-GAL4); expressed in transfected cells; host or cells: HEK293
T1 sequence (P37231 238-503 limits assumed): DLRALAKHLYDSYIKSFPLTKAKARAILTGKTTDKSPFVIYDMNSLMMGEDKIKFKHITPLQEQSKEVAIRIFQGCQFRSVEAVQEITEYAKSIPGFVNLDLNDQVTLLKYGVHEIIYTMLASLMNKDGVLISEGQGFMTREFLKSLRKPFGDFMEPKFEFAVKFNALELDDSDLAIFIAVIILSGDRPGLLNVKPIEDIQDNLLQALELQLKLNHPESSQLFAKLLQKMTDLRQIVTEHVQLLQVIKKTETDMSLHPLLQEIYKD
Method: A plasmid was transformed into E. coli (DE3, Rosetta) and transfected into HEK293 cells and used. Referring to known literatures such as Kanno, Y. & Inouye, Y. J Toxicol Sci 35, 515-525 (2010), Zhao, S. et al. J Nat Prod 79, 879-885 (2016), etc., luciferase assay was performed on three types of pcDNA5-GAL4 and pGALRE-luc containing PPARα-LBD, PPARβ/δ-LBD, or PPARγ-LBD. pProEX-PPAR and pET-28a were used for purification of His-tagged recombinant hPPAR-LBD protein.
A HEK293 cell line was cultured in Dulbecco's Modified Eagle Medium (DMEM) containing 10% Fetal Bovine Serum (FBS) and 1% penicillin-streptomycin (P/S). […]
Transfected HEK293 cells were treated with a drug and after 24 hours, the cells were collected, resuspended in a luciferase lysis buffer (Promega, Madison, Wisconsin, USA), and incubated on ice for 10 minutes. […] Next, Firefly Luciferase (Fluc) and Renilla Luciferase (Rluc) activities were measured using the Dual Luciferase Reporter Assay System (Promega, Madison, Wisconsin, USA). […]
To confirm whether a compound represented by Chemical Formula 1 was a PPAR agonist, Gal4 trans-activated luciferase assay was performed. Specifically, HEK293 cells were transfected with the Gal4-luciferase reporter systems of PPARα, PPARβ/δ, and PPARγ, respectively, harvested after drug treatment for 24 hours, and then analyzed by Dual-Luciferase assay. […]

relative luciferase activity (Fluc to Rluc) for PPARγ (PPARγ): dose-dependently increased
SMILES: COc1ccc(-c2cc(=O)oc3c(C)c(OC(=O)[C@H](Cc4c[nH]c5ccccc45)NC(=O)OC(C)(C)C)ccc23)cc1 [Chemical Formula 1, [4-(4-methoxyphenyl)-8-methyl-2-oxochromen-7-yl] (2S)-3-(1H-indol-3-yl)-2-[(2-methylpropan-2-yl)oxycarbonylamino]propanoate]
volume of adipose tissue (micro-CT) (high-fat diet mice [1]): significantly reduced | insulin resistance (IP-ITT) (high-fat diet mice [2]): improved
